# Reference: patent publication US8865626B2, “Synergistically active herbicidal agents that are compatible with cultivated plants and contain herbicides from the group of benzoylpyrazoles” (Bayer Cropscience AG, priority 2006, dated 2014)
# Columns and labels:
# Format in all cases: in vivo
# summer wheat = assay: Post-emergence damage to crop plant (safener test)
# Method: Seeds of monocotyledonous and dicotyledonous weed and crop plants are placed into sandy loam in wood fiber pots or in plastic pots, covered with soil and cultivated in a greenhouse, including during the vegetation period outdoors outside of the greenhouse, under good growth conditions. 2-3 weeks after sowing, the test plants are treated at the one- to three-leaf stage. The test compounds, formulated as wettable powders (WP) or liquid (EC) are, in various dosages with a water application rate of 300 I/ha (converted), with added wetting agent (0.2 to 0.3%), sprayed onto the plants and the surface of the soil. 3 to 4 weeks after the treatment of the test plants, the effect of the preparations is rated visually in comparison to untreated controls (herbicidal effect in percent (%): 100% effect=plants have died, 0% effect=like control plants). […]
# LAMPU = assay: Herbicidal post-emergence action against LAMPU; conditions: visual rating 3 to 4 weeks after treatment
# Method: (§1) Seeds of monocotyledonous and dicotyledonous weed and crop plants are placed into sandy loam in wood fiber pots or in plastic pots, covered with soil and cultivated in a greenhouse, including during the vegetation period outdoors outside of the greenhouse, under good growth conditions. 2-3 weeks after sowing, the test plants are treated at the one- to three-leaf stage. The test compounds, formulated as wettable powders (WP) or liquid (EC) are, in various dosages with a water application rate of 300 I/ha (converted), with added wetting agent (0.2 to 0.3%), sprayed onto the plants and the surface of the soil. 3 to 4 weeks after the treatment of the test plants, the effect of the preparations is rated visually in comparison to untreated controls (herbicidal effect in percent (%): 100% effect=plants have died, 0% effect=like control plants).
# (§2) By comparing the effect of the test substances on crop plants without or with safener treatment, it is possible to assess the effect of the safener substance.
# AVEFA = assay: Herbicidal post-emergence action against AVEFA; conditions: visual rating 3 to 4 weeks after treatment
# Method: as §1, §2
# VERHE = assay: Herbicidal post-emergence action against VERHE; conditions: visual rating 3 to 4 weeks after treatment
# Method: as §1, §2
# STEME = assay: Herbicidal post-emergence action against STEME; conditions: visual rating 3 to 4 weeks after treatment
# Method: as §1
# (§3) If it is additionally to be tested as to whether safeners can improve the plant compatibility of test substances in the case of crop plants, the following options are used for applying the safener: • seeds of the crop plants are, before sowing, dressed with the safener substance (the amount of safener is stated in percent, based on the weight of the seed) • before the application of the test substances, the crop plants are sprayed with the safener at a certain application rate per hectare (usually 1 day before the application of the test substances) • the safener is applied together with the test substance as a tank mix (the amount of safener is stated in g/ha or as a ratio, based on the herbicide).
# as §2
# MATIN = assay: Herbicidal post-emergence action against MATIN; conditions: visual rating 3 to 4 weeks after treatment
# Method: as §1, §3, §2
structure (smiles),measurement,setting,value
Cc1nn(C)c(O)c1C(=O)c1ccc(C(F)(F)F)cc1S(C)(=O)=O [pyrasulfotole],Damage to summer wheat,summer wheat; dosage 12.5 g of a.i./ha,20%
same,Activity against LAMPU,LAMPU; dosage 12.5 g of a.i./ha,80%
same,Activity against AVEFA,AVEFA; dosage 12.5 g of a.i./ha,40%
same,Activity against VERHE,VERHE; dosage 12.5 g of a.i./ha,40%
same,Activity against STEME,STEME; dosage 12.5 g of a.i./ha,60%
same,Activity against MATIN,MATIN; dosage 12.5 g of a.i./ha,70%
COc1cc(OC)n2nc(NS(=O)(=O)c3c(C(F)(F)F)ccnc3OC)nc2n1 [pyroxsulam],Activity against VERHE,VERHE; dosage 5 g of a.i./ha,80%
COC(=O)c1ccc(CNS(C)(=O)=O)cc1S(=O)(=O)NC(=O)Nc1nc(OC)cc(OC)n1 [mesosulfuron-methyl],Damage to summer wheat,summer wheat; dosage 7.5 g of a.i./ha,15%
same,Activity against MATIN,MATIN; dosage 7.5 g of a.i./ha,50%
CCOC(=O)C1=NN(c2ccc(Cl)cc2Cl)C(C)(C(=O)OCC)C1 (centres unmarked) [mefenpyr-diethyl],Activity against STEME,STEME; dosage 9.4 g of a.i./ha,0%
same,Activity against MATIN,MATIN; dosage 9.4 g of a.i./ha,0%
COCc1cnc(C2=NC(C)(C(C)C)C(=O)N2)c(C(=O)O)c1.N (centres unmarked) [imazamox-ammonium],Activity against AVEFA,AVEFA; dosage 25 g of a.i./ha,60%
Nc1cc(Cl)nc(C(=O)O)c1Cl [aminopyralid],Activity against STEME,STEME; dosage 150 g of a.i./ha,65%
CCOC(=O)C(Cl)Cc1cc(-n2nc(C)n(C(F)F)c2=O)c(F)cc1Cl (centres unmarked) [carfentrazone-ethyl],Activity against LAMPU,LAMPU; dosage 25 g of a.i./ha,10%
